Earlier results in US20070066580A1, “Novel aldosterone antagonists and uses thereof” (Recordati Ireland Limited, priority 2005, published 2007).

Experiments:
MR = molecular target: T1, MR (Homo sapiens, UniProt P08235); details: cited from earlier work
T1 sequence (P08235 1-984): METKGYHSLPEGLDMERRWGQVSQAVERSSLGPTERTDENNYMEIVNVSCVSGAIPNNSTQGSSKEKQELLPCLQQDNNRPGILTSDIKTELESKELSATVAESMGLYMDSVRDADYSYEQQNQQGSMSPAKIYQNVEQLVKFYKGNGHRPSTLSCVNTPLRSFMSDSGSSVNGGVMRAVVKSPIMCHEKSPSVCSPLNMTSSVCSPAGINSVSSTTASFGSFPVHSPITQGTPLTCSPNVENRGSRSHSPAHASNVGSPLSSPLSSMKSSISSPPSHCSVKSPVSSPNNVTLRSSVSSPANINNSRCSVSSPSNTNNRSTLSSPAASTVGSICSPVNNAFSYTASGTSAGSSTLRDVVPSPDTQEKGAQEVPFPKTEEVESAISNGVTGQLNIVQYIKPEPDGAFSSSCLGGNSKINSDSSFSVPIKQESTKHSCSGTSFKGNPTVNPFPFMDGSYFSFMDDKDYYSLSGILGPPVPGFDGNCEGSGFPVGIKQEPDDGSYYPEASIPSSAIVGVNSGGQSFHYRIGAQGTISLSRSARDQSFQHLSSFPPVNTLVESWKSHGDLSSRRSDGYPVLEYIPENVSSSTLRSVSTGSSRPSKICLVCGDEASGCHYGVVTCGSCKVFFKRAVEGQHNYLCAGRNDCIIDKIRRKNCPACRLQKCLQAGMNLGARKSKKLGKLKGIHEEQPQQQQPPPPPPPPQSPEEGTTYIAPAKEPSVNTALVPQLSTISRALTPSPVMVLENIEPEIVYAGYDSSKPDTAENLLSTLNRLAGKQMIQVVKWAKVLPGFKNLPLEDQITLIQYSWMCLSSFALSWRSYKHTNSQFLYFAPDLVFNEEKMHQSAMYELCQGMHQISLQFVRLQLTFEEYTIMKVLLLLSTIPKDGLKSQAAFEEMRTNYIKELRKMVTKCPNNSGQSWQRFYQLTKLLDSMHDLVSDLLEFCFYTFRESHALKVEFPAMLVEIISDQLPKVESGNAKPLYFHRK

[1] = severe heart failure (NYHA class IV), plus diuretics, versus placebo plus diuretics; cited from earlier work
[2] = cited from earlier work

CC(=O)S[C@@H]1CC2=CC(=O)C=C[C@]2(C)[C@H]2CC[C@@]3(C)[C@@H]([C@@H]4C[C@@H]4[C@@]34CCC(=O)O4)[C@H]12 [Mespirenone]
anti-MR effectiveness compared with spironolactone (MR): about three times higher

CCOC(=O)[C@H](CCc1ccccc1)N[C@@H](C)C(=O)N1CCC[C@H]1C(=O)O [enalapril]
reduction of mortality at one year [1]: 31%

COC(=O)[C@@H]1CC2=CC(=O)CC[C@]2(C)[C@@]23O[C@@H]2C[C@@]2(C)[C@@H](CC[C@@]24CCC(=O)O4)[C@H]13 [eplerenone]
potency in vivo as % of spironolactone [2]: 50-75%

C[C@]12C=CC(=O)C=C1[C@@H]1C[C@@H]1[C@H]1[C@@H]3[C@@H]4C[C@@H]4[C@@]4(CCC(=O)O4)[C@@]3(C)CC[C@@H]12 [spirorenone]
antimineralocorticoid potency, times more potent than spironolactone (MR): approximately 7.5 times
